Legend:
[1] = biological target: Albumin (Homo sapiens, UniProt P02768); assay: Binding affinity to human serum albumin by fast gradient HPLC; type: ADME; conditions: isolated protein
[2] = biological target: Cytochrome P450 2C19 (Homo sapiens, UniProt P33261); assay: Inhibition of CYP2C19; type: ADME
[3] = system: A549; assay: Inhibition of TNF-induced NFkappaB activation in human A549 cells after 15 hrs relative to Dexamethasone; type: cell-based; parameters: scale not given: the % may be the effect or the level left
[4] = Clearance in Sprague-Dawley rat at 1 mg/kg, iv and 1 mg/kg, po; type: ADME, organism-based; conditions: in vivo
[5] = biological target: T1, Glucocorticoid receptor (Homo sapiens, UniProt P04150)
T1 sequence (P04150 whole entry): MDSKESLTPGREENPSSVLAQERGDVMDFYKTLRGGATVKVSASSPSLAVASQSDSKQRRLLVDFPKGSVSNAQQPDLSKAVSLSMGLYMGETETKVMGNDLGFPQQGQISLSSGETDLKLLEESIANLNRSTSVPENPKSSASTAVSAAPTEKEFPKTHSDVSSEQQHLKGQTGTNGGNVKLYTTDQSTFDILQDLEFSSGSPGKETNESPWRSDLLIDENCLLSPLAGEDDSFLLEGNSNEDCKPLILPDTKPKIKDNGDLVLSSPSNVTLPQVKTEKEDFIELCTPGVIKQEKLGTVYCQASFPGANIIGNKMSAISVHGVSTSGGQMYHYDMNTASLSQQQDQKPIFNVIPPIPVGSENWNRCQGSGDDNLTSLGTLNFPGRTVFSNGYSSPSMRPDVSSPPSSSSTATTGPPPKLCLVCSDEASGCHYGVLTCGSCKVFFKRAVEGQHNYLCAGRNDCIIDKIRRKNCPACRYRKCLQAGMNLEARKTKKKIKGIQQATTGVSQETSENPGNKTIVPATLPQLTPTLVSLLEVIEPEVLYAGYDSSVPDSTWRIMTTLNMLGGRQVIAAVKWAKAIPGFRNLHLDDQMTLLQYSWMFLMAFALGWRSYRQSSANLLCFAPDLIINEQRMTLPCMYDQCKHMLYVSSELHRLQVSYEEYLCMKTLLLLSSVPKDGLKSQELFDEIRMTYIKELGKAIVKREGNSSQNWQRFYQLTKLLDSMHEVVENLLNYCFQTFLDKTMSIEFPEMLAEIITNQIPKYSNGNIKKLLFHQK
Description: Agonist activity at human glucocorticoid receptor in human A549 cells assessed as transcriptional activity by MMTV luciferase reporter gene assay

[6] = biological target: Cytochrome P450 2D6 (Homo sapiens, UniProt P10635); assay: Inhibition of CYP2D6; type: ADME
Cytochrome P450 2D6, sequence (P10635 whole entry): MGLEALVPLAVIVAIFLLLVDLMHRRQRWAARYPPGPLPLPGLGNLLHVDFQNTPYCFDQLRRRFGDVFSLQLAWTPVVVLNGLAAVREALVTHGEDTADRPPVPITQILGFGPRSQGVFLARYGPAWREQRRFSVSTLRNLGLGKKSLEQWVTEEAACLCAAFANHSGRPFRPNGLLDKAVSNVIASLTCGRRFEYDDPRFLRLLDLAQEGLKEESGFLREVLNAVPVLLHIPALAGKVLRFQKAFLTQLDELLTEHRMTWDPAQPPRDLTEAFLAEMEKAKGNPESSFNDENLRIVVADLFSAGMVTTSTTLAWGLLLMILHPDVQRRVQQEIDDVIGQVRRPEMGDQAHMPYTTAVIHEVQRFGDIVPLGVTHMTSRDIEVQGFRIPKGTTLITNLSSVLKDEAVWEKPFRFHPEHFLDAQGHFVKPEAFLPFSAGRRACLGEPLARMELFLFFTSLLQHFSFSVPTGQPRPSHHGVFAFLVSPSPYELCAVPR

[7] = biological target: T2, Cytochrome P450 1A2 (Homo sapiens, UniProt P05177); assay: Inhibition of CYP1A2; type: ADME
T2 sequence (P05177 whole entry): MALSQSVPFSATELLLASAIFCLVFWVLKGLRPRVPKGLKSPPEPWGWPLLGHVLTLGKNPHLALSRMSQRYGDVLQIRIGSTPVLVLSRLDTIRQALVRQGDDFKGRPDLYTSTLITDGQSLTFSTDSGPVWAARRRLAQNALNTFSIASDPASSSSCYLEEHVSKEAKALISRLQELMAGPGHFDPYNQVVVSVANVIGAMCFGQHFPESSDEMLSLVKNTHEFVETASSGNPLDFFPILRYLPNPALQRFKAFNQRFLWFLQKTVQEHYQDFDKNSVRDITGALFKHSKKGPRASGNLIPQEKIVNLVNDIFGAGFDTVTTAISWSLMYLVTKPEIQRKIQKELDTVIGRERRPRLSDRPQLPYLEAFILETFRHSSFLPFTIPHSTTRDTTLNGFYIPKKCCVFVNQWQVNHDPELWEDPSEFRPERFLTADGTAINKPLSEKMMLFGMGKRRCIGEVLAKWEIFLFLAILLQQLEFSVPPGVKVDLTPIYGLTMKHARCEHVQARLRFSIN

[8] = Oral bioavailability in Sprague-Dawley rat at 1 mg/kg; type: ADME, organism-based; conditions: in vivo
[9] = biological target: Cytochrome P450 2C9 (Homo sapiens, UniProt P11712); assay: Inhibition of CYP2C9; type: ADME
Cytochrome P450 2C9, sequence (P11712 whole entry): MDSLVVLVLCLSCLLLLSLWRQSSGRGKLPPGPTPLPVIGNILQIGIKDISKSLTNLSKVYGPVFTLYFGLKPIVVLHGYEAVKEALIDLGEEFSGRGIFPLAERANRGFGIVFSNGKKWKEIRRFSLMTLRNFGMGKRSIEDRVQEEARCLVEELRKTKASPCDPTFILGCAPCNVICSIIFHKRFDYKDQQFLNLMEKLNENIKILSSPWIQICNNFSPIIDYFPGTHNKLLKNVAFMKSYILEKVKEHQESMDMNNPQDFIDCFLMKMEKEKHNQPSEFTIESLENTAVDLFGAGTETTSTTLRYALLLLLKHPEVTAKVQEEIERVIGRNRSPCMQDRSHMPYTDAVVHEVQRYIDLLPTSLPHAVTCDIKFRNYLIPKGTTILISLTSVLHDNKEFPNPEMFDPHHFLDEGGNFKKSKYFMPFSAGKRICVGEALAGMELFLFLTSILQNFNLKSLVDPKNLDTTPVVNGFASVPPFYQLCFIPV

[10] = Inhibition of TNF-induced NF-kappaB activation in human A549 cells after 15 hrs; conditions: Homo sapiens, A549, 15 h, read-out: pIC50 (converted)
[11] = Protein binding in human plasma by ultrafiltration; type: ADME, cell-free; conditions: read-out: PPB (converted)
[12] = biological target: Cytochrome P450 3A4 (Homo sapiens, UniProt P08684)
Cytochrome P450 3A4, sequence (P08684 whole entry): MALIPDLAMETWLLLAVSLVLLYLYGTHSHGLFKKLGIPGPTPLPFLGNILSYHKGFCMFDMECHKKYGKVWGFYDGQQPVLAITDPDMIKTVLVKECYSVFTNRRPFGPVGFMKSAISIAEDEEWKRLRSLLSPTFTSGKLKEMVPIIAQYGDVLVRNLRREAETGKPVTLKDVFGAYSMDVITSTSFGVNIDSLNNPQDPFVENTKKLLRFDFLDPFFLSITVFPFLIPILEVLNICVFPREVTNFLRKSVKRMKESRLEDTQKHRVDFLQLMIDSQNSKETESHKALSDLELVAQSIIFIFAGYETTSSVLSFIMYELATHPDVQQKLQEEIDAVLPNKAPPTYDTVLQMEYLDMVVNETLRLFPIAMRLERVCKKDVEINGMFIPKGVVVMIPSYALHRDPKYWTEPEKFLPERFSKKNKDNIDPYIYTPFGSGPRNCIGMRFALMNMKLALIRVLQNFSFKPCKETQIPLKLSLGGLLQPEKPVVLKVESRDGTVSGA

[13] = biological target: T1, Glucocorticoid receptor; remark: listed apart in the source
Description: Displacement of fluorescent labelled Dexamethasone from glucocorticoid receptor

[14] = Volume of distribution at steady state in Sprague-Dawley rat at 1 mg/kg, iv and 1 mg/kg, po; type: ADME, organism-based; conditions: in vivo, read-out: Vdss

Albumin, sequence (P02768 whole entry): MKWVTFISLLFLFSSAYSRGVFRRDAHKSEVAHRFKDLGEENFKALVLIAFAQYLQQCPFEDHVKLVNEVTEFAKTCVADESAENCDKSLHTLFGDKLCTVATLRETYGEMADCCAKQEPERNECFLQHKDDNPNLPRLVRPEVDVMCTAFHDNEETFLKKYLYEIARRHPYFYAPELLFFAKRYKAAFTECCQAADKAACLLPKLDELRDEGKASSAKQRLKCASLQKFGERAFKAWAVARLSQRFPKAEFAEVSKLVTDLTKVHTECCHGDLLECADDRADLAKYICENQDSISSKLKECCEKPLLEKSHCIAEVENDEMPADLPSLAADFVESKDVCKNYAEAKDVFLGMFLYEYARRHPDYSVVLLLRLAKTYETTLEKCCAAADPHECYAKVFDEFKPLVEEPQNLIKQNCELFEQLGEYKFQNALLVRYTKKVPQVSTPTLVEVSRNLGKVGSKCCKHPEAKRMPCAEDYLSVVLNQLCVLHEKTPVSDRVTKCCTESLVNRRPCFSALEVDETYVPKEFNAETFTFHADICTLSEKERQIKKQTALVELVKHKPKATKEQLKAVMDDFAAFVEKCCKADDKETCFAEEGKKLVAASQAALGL
Cytochrome P450 2C19, sequence (P33261 whole entry): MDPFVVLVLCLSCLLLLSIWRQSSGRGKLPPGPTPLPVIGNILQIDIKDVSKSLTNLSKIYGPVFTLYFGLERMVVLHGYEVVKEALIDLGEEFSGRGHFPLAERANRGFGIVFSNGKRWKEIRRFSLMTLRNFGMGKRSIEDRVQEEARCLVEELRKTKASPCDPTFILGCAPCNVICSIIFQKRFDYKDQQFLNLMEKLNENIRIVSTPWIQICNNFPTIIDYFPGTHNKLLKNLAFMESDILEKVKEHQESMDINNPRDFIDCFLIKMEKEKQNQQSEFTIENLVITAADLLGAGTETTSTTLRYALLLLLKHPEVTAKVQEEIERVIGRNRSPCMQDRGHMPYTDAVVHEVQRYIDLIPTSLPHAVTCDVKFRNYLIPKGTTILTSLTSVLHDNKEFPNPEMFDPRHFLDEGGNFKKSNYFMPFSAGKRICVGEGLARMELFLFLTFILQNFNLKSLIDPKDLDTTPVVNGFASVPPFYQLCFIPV

## Nc1c(C(=O)NCC(O)(CN(CCO)C(=O)c2c(F)cccc2F)C(F)(F)F)cnn1-c1ccc(F)cc1 (stereo not drawn)
[1]
  Activity: 81%
[2]
  IC50: 40 µM
[3]
  Activity: 94%
[4]
  clearance: 8 mL/min/kg
[5]
  EC50: 0.0501 µM
[6]
  IC50: 100 µM
[7]
  IC50: 100 µM
[8]
  bioavailability: 44%
[9]
  IC50: 13 µM
[10]
  IC50: 0.02 µM
[11]
  fraction unbound: 0.32
[12]
  IC50: 76 µM
[13]
  IC50: 0.0158 µM
[14]
  Vd: 0.9 L/kg

## Nc1c(C(=O)NCC(O)(CN(CCF)C(=O)c2c(F)cccc2F)C(F)(F)F)cnn1-c1ccc(F)cc1 (racemic)
[1]
  Activity: 93%
[2]
  IC50: 8 µM
[3]
  Activity: 94%
[4]
  clearance: 21 mL/min/kg
[5]
  EC50: 0.0501 µM
[6]
  IC50: 20 µM
[7]
  IC50: 100 µM
[8]
  bioavailability: 39%
[9]
  IC50: 4 µM
[10]
  IC50: 0.01 µM
[11]
  fraction unbound: 0.07
[12]
  IC50: 0.5 µM
[13]
  IC50: 0.02 µM
[14]
  Vd: 2.6 L/kg

Source: ChEMBL document CHEMBL1139273, “Aryl aminopyrazole benzamides as oral non-steroidal selective glucocorticoid receptor agonists” (Bioorg Med Chem Lett, 2009)
